Experimental data from a melting point compilation (Tetko et al.; mined from patent text by program, amines drawn as free bases though some values may be those of a salt).

Compound | melting point [°C]
N#CC(N)c1ccc(F)cc1 (stereo unspecified) | 77.9
O=C=NC(=O)SCc1ccccc1 | 140 to 145
c1cc2c3c(c[nH]c3c1)CC1NCCOC21 (stereo unspecified) | 175 to 177
Cc1nc(Cn2c(=O)sc3cc(F)c(N=C=O)cc32)no1 | 125 to 127
CC(=O)SCC(CC(C)C)C(=O)O (stereo unspecified) | 42 to 47
CCn1c(=O)c(C(N)=O)c(O)c2ccc(C)nc21 | 240 to 242
COC(COC(C)=O)C1(O)CCC2C3CCC4=CC(=O)CCC4(C)C3CCC21C (stereo unspecified) | 145 to 147
O=C(NC[C@H]1CN(c2cc(F)c(N3CCC(n4ncnn4)CC3)c(F)c2)C(=O)O1)C(Cl)Cl | 160 to 162
ClCc1cnoc1-c1cc(Cl)c(Cl)s1 | 60 to 61
C=CCOCCOC(=O)c1cc(-n2c(OC)nc(C(F)(F)F)cc2=O)c(F)cc1Cl | 74 to 77
CC(=O)OCC1OC(n2ccc(=O)[nH]c2=O)C(Br)C1OC(C)=O (stereo unspecified) | 69 to 77
NCCNC(=O)COc1ccc(C2=NNC(=O)CC2)cc1Cl | 168 to 170
Cc1cc(NC(=O)c2cc(Cl)cc(C)n2)ccn1 | 162
CC(=O)Oc1c(C)c(C)c2c(c1C)CCC(C)(CCBr)O2 (stereo unspecified) | 102 to 103
O=S1(=O)N=CN(C2CC2)c2cc(Br)c(C(F)(F)F)cc21 | 204 to 206
CC(C)(C)c1cc(-c2n[nH]c(=O)o2)cc(C(C)(C)C)c1O | 246
CC(C)Sc1cn(C)cc(-c2ccc(Cl)c(C(F)(F)F)c2)c1=O | 127 to 129
Cc1cc(/C=C/CC(C)N(C)C(=O)OC(C)(C)C)cnc1N (stereo unspecified) | 78 to 81
CN1CCN(Cc2c(-c3cc(C(C)(C)C)c(O)c(C(C)(C)C)c3)nc3n2CCS3)CC1 | 211 to 212
CC1(C)OCC(NC2COC(C)(C)OC2)CO1 | 65
CC(C)C(=O)C(=CC(=O)c1ccc(Cl)cc1)n1cncn1 | 128 to 130
CN(C(=O)CCS(C)(=O)=O)c1cn(-c2cccnc2)nc1Cl | 90 to 91

Compound | melting point [°C]
CCOC(=O)c1nc[nH]c1C(=O)OCC | 175 to 177
C[C@H](C=C[C@H](C)[C@H](C)CO)[C@H]1CC[C@H]2C3=CCC4CC(=O)CC[C@]4(C)[C@H]3CC[C@]12C (stereo partly specified) | 192 to 193
CC(=O)OC1CSC(Oc2ccc(C)nc2[N+](=O)[O-])C(OC(C)=O)C1OC(C)=O (stereo unspecified) | 154
CC(C)(C)C(NC(=O)c1ccc(Cl)cc1F)NC(=NC#N)Nc1cccnc1 (stereo unspecified) | 183 to 184
Nc1ccn(C2C=CC(CO)O2)c(=O)n1 (stereo unspecified) | 167 to 169
O=[N+]([O-])c1ccc(C2=NNC(CO)Cc3cc4c(cc32)OCO4)cc1 (stereo unspecified) | 132 to 134
FC1CCC2C3Cc4ccccc4C2(CCN3)C1 (stereo unspecified) | 93 to 97
CNC(=O)c1cc(NCc2c(C)cccc2C)c2nc(C)n(C)c2c1 | 252 to 253
O=C(O)C1=Cc2c(Cl)cc(Cl)cc2OC1C(F)(F)F (stereo unspecified) | 190 to 191
COc1cc(-c2nn(C)c(C#N)c2C)c(F)cc1Cl | 155 to 156
O=[N+]([O-])c1c(NCCCO)cccc1NCCCO | 90
Cc1cc2nc3ccc(C#N)cn3c(=O)c2s1 | 258 to 259
Cc1cc(C#N)c(C)c(C(=O)Nc2ccc(F)c(C)n2)n1 | 201
COC(=O)C(C)=CC1C(C(=O)OC(C)(C)N2C(=O)C=CC2=O)C1(C)C (stereo unspecified) | 98.7
CC(C)C(=O)NCCO | 54 to 57
Cc1nc2cccc(N)c2c(=O)n1C1CCC(=O)NC1=O (stereo unspecified) | 293 to 295
NS(=O)(=O)c1cccc(-c2cccc(-c3nc(-c4ccc(Cl)cc4)cc(C(F)(F)F)n3)c2)c1 | 165
CC1CC(n2c(NC3CC3)nc3cc(Cl)c(Cl)cc32)C(O)C1O (stereo unspecified) | 231 to 233
N#Cc1c(Cl)c(F)cc(C(=O)Cl)c1Cl | 73 to 75
CC(=O)OCC1=C(C(=O)OC(C)(C)C)N2C(=O)C(NC(=O)Cn3ccnc3S(C)(=O)=O)C2SC1 (stereo unspecified) | 164
Cc1ccc(N)c(C(=O)Nc2cccnc2Cl)c1 | 187 to 190

Results, then the compound that gave them:

melting point [°C] | Compound
147 to 148 | CC(C)(C)c1csc(COc2cccc(C(=O)Nc3cc(CCCS(=O)(=O)c4ccc(Cl)cc4)ccc3OCC(N)=O)c2)n1
157 to 160 | CN1CCN(c2nc(-c3ccc(Cl)cc3)c(CCC(=O)O)o2)CC1
216 to 222 | Nc1ccc2[nH]c3cc(-c4ccccc4Cl)c4c(c3c2c1)C(=O)NC4=O
76 | Cc1cc(-n2ccnc2)c2cccc(OCc3c(Cl)ccc(S(=O)(=O)N4CCC[C@H]4CO)c3Cl)c2n1
86.7 to 92.3 | Cc1nc(OCCO)c(C#N)c(N2CCc3ccccc3CC2)n1
110 to 111 | CNc1ncn(C)c1C(=O)NCc1ccccc1
165 to 167 | O=C(NCc1cccnc1)c1ccc2n1Cc1ccccc1N(C(=O)c1ccc(-c3ccccc3C=NO)cc1)C2
42 to 57 | c1ccc(CN2CCCC3(CC2)CC(c2ccccc2)=NO3)cc1 (stereo unspecified)
219 | CN(CCOc1ccc(C=C2SC(=O)NC2=O)cc1)c1nc2ccccc2s1
120 to 121 | CC(C)c1cc(C(=O)Nc2ccc(C(=O)O)cc2)oc1C(C)C
122 to 124 | COc1ccc2cc(CC(=O)OCC(C)=O)ccc2c1
> 250 | CC(=O)Nc1nc2ccc(S(=O)(=O)n3c(CCCC(=O)O)cc4cc(Cl)ccc43)cc2s1
196 to 198 | C#CCn1ncc(-c2ccc(S(C)(=O)=O)cc2)c(-c2ccc(F)cc2)c1=O
211 to 215 | Cc1ccc2ccc(Cn3c(=S)sc4ccccc43)c(O)c2n1
210 to 211 | CCOCc1nc2c(N)nc3ccccc3c2n1CCC1(O)CC1
59 to 61 | Cc1cccc(C(=O)NCN2CCN(c3cccc(C#N)c3)CC2)c1
206 to 209 | CC(C)c1ccc(N2Cc3ccc(Cl)cc3C2=O)cc1
138 | CCCCCNS(=O)(=O)NC(=O)/C(C)=C/c1ccc(OC(C)C)cc1Oc1ncc(C(F)(F)F)cc1Cl
227 to 228 | COc1ccc(C(=O)Nc2c(Cl)cncc2Cl)cc1O
108 to 110 | OCc1cccc2c1CCc1ccccc1-2

melting point [°C] | Compound
89 to 91 | COC(=O)c1ccc(Oc2nn(Cc3ccccc3)c3ccccc23)o1
213 to 216 | COc1cc(OC)c(-c2cccs2)cc1/C=C/C(=O)c1ccc(C(=O)O)cc1
138 to 140 | CC1(C)C2CCC1(CS(=O)(=O)N1CCC3(C=Cc4ccccc43)CC1)C(O)(CC(=O)O)C2 (stereo unspecified)
35 to 36 | CCOC(=O)C(=NC1CCCCC1)c1cccn1C
182 to 184 | CC(C(=O)O)c1ccc2c(c1)CCc1cccnc1O2 (stereo unspecified)
115 to 117 | Nc1ccccc1Oc1ccc2ncccc2c1
190 to 194 | COc1cc2ccccc2c(=O)c2cc(Cl)sc12
196 to 198 | COC(=O)c1c(C(=O)OC)c(-c2ccccc2)c(C(=O)O)c(C(=O)O)c1-c1ccccc1
176 to 178 | O=C(NN1CCN(Cc2c[nH]c3ccccc23)CC1)c1ccccc1
160 to 161 | CS(=O)(=O)c1ccc(-c2cocc2-c2ccc(F)cc2)cc1
204 to 205 | COc1ccc(-c2cc(=O)c3c(O)cc(OCC4=COC(C)(C)O4)cc3o2)cc1OC(=O)C(C)(C)C
70 to 70.5 | FC(F)C(F)(F)Sc1nc(-c2ccccc2)c(-c2ccccc2)n1COCc1ccccc1
153 to 154 | CCOC(=O)c1ccc(-c2coc(-c3ccc(Cl)cc3)n2)cc1
130 to 132 | CCCc1c(OCCCOc2ccccc2)ccc2c1OC(CCC(=O)O)(CCC(=O)O)CC2
131 to 133 | COc1cc(I)c(C(=O)OC(C)COC(=O)c2ccc3c(c2I)OCO3)cc1OC (stereo unspecified)
145 to 147 | CCOC(=O)n1c(SCc2nccc(SCCN3CCOCC3)c2C)nc2ccccc21
122 to 124 | CCC12CCC3=C(CCc4cc(OC(C)=O)ccc43)C1=CCC2=O (stereo unspecified)
102 | CCCCCCCCCc1c(C(F)(F)F)noc1NS(=O)(=O)c1ccccc1
67 to 70 | Oc1ccccc1C1OCCO1
72 | O=C(Oc1ccccc1)N1Cc2ccccc2C(Oc2ccc(C(F)(F)F)cc2)C1 (stereo unspecified)

melting point [°C] | Compound
205 | CCN=C1NC(=O)C(OC)(c2nsc3ccc(-n4c(=O)cc(C(F)(F)F)n(C)c4=O)cc23)N1 (stereo unspecified)
212 to 214 | CCCOc1ccccc1-c1nc2cc3ncn(CC)c3cc2c(=O)[nH]1
67 to 69 | Cc1ccc(CCc2ccccc2Br)c(N)c1
100 to 102 | Cc1cn2cccc(OCc3c(Cl)ccc(S(=O)(=O)N4CCC[C@H]4C(=O)NCCCNC(=O)c4ccc(C#N)cc4)c3Cl)c2n1
252 to 256 | CC(C)(C)C(=O)Nc1ccc2c(c1)ncn1c(=O)c(C(=O)O)cnc21
172 to 173 | CCCCN1CCn2c1nc(C(=O)NCc1ccc(F)cc1-n1cnc(C)n1)c(OCc1ccccc1)c2=O
186 | CC(O)c1cccc(NC(=O)NCC(=O)N(c2ccccc2)C(C)C(=O)N2CCCC(C)(C)C2)c1 (mixture of isomers)
98 to 99 | COC(=O)C1(CCCN2CCN(c3ccccc3)CC2)Oc2ccccc2CCC1O (stereo unspecified)
215 to 217 | CNC(=O)Cn1c(-c2ccc(F)cc2)nc2cccnc21
82 to 83 | CCC(O)(c1ccc(OCCCN2CCC(C)CC2)cc1)c1ccccc1OC (stereo unspecified)
125 to 134 | CC(O)(c1ccc(F)cc1)C1CCN(CC2CC(c3ccc4[nH]c(=O)oc4c3)=NO2)CC1 (stereo unspecified)
192 to 193 | CSc1sc(C(N)=O)c2c1-c1sc(-c3ccccc3)cc1CC2
129 to 131 | Cc1nc2cc(Cl)ccc2c2ccccc12
100 to 104 | O=C(c1ccccc1)c1cccc2cc[nH]c12
195 to 196 | CCOc1cc2c(C)c(CCN3CCC(c4ccccc4)CC3)c(=O)oc2cc1OC
124 to 126 | CCc1ccccc1-c1nc(-c2ccccc2)n[nH]1
119 to 120 | CON=Cc1ccc2c(c1)ncn2-c1cccc(Br)c1
153 | CS(=O)(=O)NC(=O)COc1ccc(CCCS(=O)(=O)c2ccc(Cl)cc2)cc1NC(=O)c1cccc(OCc2nc3ccccc3s2)c1
